How the values were obtained:
rat beta cells [1] = test: Beta cell DNA synthesis/proliferation by EdU (and BrdU) incorporation, incl. LOPAC screen; format: cell-based
Summary of the method: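 Sorted beta cells on 804G matrix were cultured at 37° C in Ham F10 with 50 μM IBMX and 10 mM glucose. In the LOPAC screen, compounds were added on day 1, with EdU (10 μM) from days 3–6. Imaged % EdU-positive cells defined hits at a Z-score above three SD.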

rat beta cells [2] = test: Cellular insulin content, insulin release and glucose-stimulated insulin secretion of cultured beta cells; format: cell-based; settings: for Insulin Content Day 15: HC
Protocol: Beta cells were FACS-purified from islet-cell enriched suspensions (Pipeleers et al., 1985) prepared from neonatal (2-3 days-old) and adolescent or adult (8 or 40-week-old, male) Wistar rats (Janvier Bioservices, France); their purity was, respectively 70-75% and over 90%. Sorted cells were counted in a hemocytometer, seeded (day 0) and cultured for up to 15 days in serum-free Ham's-F10 medium at 5, 10 or 20 mmol/l glucose, supplemented with 2 mmol/l L-glutamine, 50 μM 3-isobutyl-1-methylxanthine, 0.5% Albumax-I, penicillin (100 U/ml) and streptomycin (0.1 mg/ml). The 10 mmol/l glucose condition is known to maintain beta cell survival over 9-days (Ling et al., 1994; Ling and Pipeleers, 1994). Medium and cells were retrieved after selected culture periods and assayed for insulin content; data were expressed as a function of the number of living beta cells that was determined in parallel wells.

[3] = target: T1, mineralocorticoid receptor (MR) (Homo sapiens, UniProt P08235); settings: cited from earlier work
T1 sequence (P08235 1-984): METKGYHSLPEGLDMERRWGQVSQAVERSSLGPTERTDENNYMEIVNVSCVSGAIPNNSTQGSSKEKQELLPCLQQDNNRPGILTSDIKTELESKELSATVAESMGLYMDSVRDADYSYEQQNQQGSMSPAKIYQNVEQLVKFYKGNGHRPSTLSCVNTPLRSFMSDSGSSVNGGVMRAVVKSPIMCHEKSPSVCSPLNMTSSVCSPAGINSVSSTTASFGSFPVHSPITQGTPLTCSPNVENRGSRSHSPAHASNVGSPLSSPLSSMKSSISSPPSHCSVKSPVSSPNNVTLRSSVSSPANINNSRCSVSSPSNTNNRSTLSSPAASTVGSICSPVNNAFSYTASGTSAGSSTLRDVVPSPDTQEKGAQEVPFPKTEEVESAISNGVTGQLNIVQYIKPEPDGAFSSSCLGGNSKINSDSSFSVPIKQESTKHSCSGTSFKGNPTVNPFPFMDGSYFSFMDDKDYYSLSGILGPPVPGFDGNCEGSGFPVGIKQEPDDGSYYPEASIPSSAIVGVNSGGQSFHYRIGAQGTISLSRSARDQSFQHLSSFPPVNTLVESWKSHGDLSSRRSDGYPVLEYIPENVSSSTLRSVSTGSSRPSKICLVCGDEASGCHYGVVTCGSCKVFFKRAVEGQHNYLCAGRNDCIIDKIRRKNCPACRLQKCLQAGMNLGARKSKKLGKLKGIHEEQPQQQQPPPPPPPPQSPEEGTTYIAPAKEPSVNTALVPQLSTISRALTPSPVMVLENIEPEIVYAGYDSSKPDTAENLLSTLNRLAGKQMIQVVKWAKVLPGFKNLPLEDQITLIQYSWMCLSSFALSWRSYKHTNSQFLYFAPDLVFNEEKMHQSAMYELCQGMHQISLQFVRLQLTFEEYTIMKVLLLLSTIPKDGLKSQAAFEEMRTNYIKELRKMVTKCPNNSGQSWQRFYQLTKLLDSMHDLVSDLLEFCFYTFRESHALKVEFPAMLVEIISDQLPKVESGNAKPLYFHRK

In the case of `C[C@]12CCC(=O)C=C1CC[C@@H]1[C@@H]2[C@@H](O)C[C@@]2(C)[C@H]1CC[C@]2(O)C(=O)CO` [Hydrocortisone, hydrocortisone], the “Percent EdU+ cells” value (rat beta cells [1]; LOPAC screen at 1 μM, adult rat beta cells, EdU day 3 to 6, control medium 5.6) is reported as 28.0%, the Z-Score (rat beta cells [1]; LOPAC screen at 1 μM, adult rat beta cells, EdU day 3 to 6, hit cut-off three standard deviations) is reported as 5.4 and the “final concentration of optimal potency (dose-response studies)” value (rat beta cells [1]; survival and proliferation of rat beta cells, data not shown) is reported as 1 µM. The “Insulin Content Day 15” value (rat beta cells [2]; 9 days, 6 days, control) was 33.1 ± 2.9 ng/10^3 cells, the “Insulin Content Day 15” value (rat beta cells [2]; 15 days, control 35.3 ± 3.6) was 9.3 ± 0.7 ng/10^3 cells and the “Insulin Content Day 9” value (rat beta cells [2]; continuous HC, control 23.7 ± 0.9) was 14.0 ± 1.4 ng/10^3 cells. The “loss of insulin content on day 9” value (rat beta cells [2]; continuous incubation with HC) was 56%, the “loss of insulin content on day 15” value (rat beta cells [2]; continuous incubation with HC) was “more than 70%” and the “Relative Potencies MR” value [3] was 1.

Reference: patent US20160274087A1, “SCREENING ASSAY FOR AGENTS THAT INFLUENCE BETA CELL NUMBER AND/OR PHENOTYPE” (VRIJE UNIVERSITEIT BRUSSEL, priority 2013, published 2016)
